According to US7939661B2, “Pyridine, quinoline and pyrimidine derivatives” (Hoffman-La Roche Inc., priority 2006, dated 2011):

Target: T1, human subtype 5 somatostatin receptor (Homo sapiens, UniProt P35346)
T1 construct: host or cells: CHO cells, stably transfected; membranes prepared from them
Experiment: radioligand replacement (binding) assay, membranes of CHO cells expressing human SSTR5, 125I-labeled 11-Tyr somatostatin-14 tracer
Settings: human SSTR5, CHO cell membranes, 0.05 nM 125I-labeled 11-Tyr somatostatin-14, 1 h at rt; Ki from IC50 by Cheng-Prussoff equation
Description: A CHO cell line stably transfected with a plasmid encoding the human subtype 5 somatostatin receptor (GenBank accession number D16827) was obtained from Euroscreen. Cells were cultured and used for binding and functional assays.
Membranes of these cells were prepared by sonication in the presence of protease inhibitors and subsequent fractionating centrifugation. The protein concentration in the membrane preparation was determined using a commercial kit (BCA kit, Pierce, USA). Membranes were stored at −80° C. until use. After thawing membranes were diluted in assay buffer (50 mM Tris-HCl at pH 7.4, 5 mM MgCl2 and 0.20% BSA) and subjected to Dounce homogenization.
For binding studies, 0.1 mL membrane suspension, corresponding to approximately 6×10^−15 mol receptor, was incubated for 1 h at rt with 0.05 nM ^125I-labeled tracer (11-Tyr somatostatin-14, Perkin-Elmer) and either test compounds in varying concentrations or, for the determination of non-specific binding, 0.001 mM non-labeled somatostatin-14. The incubation was stopped by filtration through GF/B glassfiber filters and washing with ice-cold wash buffer (50 mM Tris-HCl at pH 7.4). The bound radioactivity was measured after application of a scintillation cocktail (Microscint 40) and expressed as disintegrations per minute (dpm).
The receptor concentration was determined in a prior saturation experiment where a fixed, arbitrary amount of membranes was incubated with a concentration range of radio-labeled tracer. This allows estimating the total number of specific binding sites per amount of protein (i.e., Bmax), typically between 1 and 5 pmol/mg.
The concentration of the test compound required to result in half maximal inhibition of binding of the radio-labeled tracer (IC50) was estimated from a concentration-versus-dpm graph. The binding affinity (Ki) was calculated from the IC50 by applying the Cheng-Prussoff equation for single binding sites.

T1 sequence (P35346 whole entry): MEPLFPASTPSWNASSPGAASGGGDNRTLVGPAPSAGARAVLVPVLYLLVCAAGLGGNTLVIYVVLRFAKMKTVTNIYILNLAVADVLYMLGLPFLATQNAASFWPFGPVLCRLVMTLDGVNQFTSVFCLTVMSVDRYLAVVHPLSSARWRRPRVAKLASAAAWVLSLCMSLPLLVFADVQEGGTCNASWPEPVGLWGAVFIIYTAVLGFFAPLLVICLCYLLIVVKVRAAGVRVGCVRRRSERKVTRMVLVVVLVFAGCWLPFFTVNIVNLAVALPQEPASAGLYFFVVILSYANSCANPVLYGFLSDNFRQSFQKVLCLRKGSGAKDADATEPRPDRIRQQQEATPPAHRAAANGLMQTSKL

| Ki | SMILES |
| --- | --- |
| 62 nM | CCOc1cc(CN2CCC(Nc3cnc4ccccc4c3)CC2)ccc1OC(F)F [Example 99, [1-(4-difluoromethoxy-3-ethoxy-benzyl)-piperidin-4-yl]-quinolin-3-yl-amine] |
| 25 nM | CCOc1cc(CN2CCC(Nc3cnc(N)c(C)c3)CC2)cc(OCC)c1-c1ccc(F)cc1 [Example 79, N^5-[1-(2,6-diethoxy-4′-fluoro-biphenyl-4-ylmethyl)-piperidin-4-yl]-3-methyl-pyridine-2,5-diamine] |

| SMILES | Ki |
| --- | --- |
| CCOc1cc(CN2CCC(Nc3ccnc(C)c3)CC2)ccc1OCC(C)C [Example 122, [1-(3-ethoxy-4-isobutoxy-benzyl)-piperidin-4-yl]-(2-methyl-pyridin-4-yl)-amine] | 492 nM |
